Measurements taken from US9371296B2, “Bicyclic 1,3,4-oxadiazole derivatives as sphingosine-1-phosphate receptors' modulators” (Allergan, Inc., priority 2014, dated 2016).

biological target: T1, human S1P1 receptor (Homo sapiens, UniProt P21453); assay: GTP γ35S binding assay for S1P1 activity; type: biochemical; conditions: 5 microgram membrane protein, test compounds 0.08 to 5,000 nM, 30 min at 25° C.
T1 construct: expressed in transfected cells; membranes used
Procedure: Compounds were synthesized and tested for S1P1 activity using the GTP γ^35S binding assay. These compounds may be assessed for their ability to activate or block activation of the human S1P1 receptor in cells stably expressing the S1P1 receptor.
GTP γ^35S binding was measured in medium containing (mM) HEPES 25, pH 7.4, MgCl2 10, NaCl 100, dithiothreitol 0.5, digitonin 0.003%, 0.2 nM GTP γ^35S, and 5 microgram membrane protein in a volume of 150 microliters. Test compounds were included in the concentration range from 0.08 to 5,000 nM unless indicated otherwise. Membranes were incubated with 100 μM 5′-adenylylimmidodiphosphate for 30 min, and subsequently with 10 micromolar GDP for 10 min on ice. Drug solutions and membrane were mixed, and then reactions were initiated by adding GTP γ^35S and continued for 30 min at 25° C. Reaction mixtures were filtered over Whatman GF/B filters under vacuum, and washed three times with 3 mL of ice-cold buffer (HEPES 25, pH7.4, MgCl2 10 and NaCl 100). Filters were dried and mixed with scintillant, and counted for ^35S activity using a β-counter. Agonist-induced GTP γ^35S binding was obtained by subtracting that in the absence of agonist. Binding data were analyzed using a non-linear regression method. In case of antagonist assay, the reaction mixture contained 10 nM […] in the presence of test antagonist at concentrations ranging from 0.08 to 5000 nM.

T1 sequence (P21453 whole entry): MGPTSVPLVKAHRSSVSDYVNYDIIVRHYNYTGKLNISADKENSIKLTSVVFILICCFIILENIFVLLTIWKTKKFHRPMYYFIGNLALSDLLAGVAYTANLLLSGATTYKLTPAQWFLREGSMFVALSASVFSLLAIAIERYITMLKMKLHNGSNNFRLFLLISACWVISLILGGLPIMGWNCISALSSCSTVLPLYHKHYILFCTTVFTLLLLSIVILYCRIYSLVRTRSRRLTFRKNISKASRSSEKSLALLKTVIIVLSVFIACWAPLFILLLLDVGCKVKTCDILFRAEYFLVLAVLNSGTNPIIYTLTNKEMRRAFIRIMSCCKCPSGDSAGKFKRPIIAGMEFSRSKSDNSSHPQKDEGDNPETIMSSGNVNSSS

| EC50 [nM] | Compound |
| --- | --- |
| 571 | CCC/C(=C\c1nnc(-c2ccc(CNCCC(=O)O)c3ccccc23)o1)c1ccccc1 [Compound 2, 3-{[(4-{5-[(1E)-2-phenylpent-1-en-1-yl]-1,3,4-oxadiazol-2-yl}naphthalen-1-yl)methyl]amino}propanoic acid] |
| 85 | CCCC/C(=C\c1nnc(-c2ccc(CNCCC(=O)O)c3ccccc23)o1)c1ccccc1 [Compound 4, 3-{[(4-{5-[(1E)-2-phenylhex-1-en-1-yl]-1,3,4-oxadiazol-2-yl}naphthalen-1-yl)methyl]amino}propanoic acid] |
| 0.5 | CCCC/C(=C\c1nnc(-c2ccc(CNCCCP(=O)(O)O)c3ncccc23)o1)c1ccccc1 [Compound 7, (3-{[(5-{5-[(1E)-2-phenylhex-1-en-1-yl]-1,3,4-oxadiazol-2-yl}quinolin-8-yl)methyl]amino}propyl) phosphonic acid] |
| 33 | CCCC/C(=C\c1nnc(-c2ccc(CNCCC(=O)O)c3ncccc23)o1)c1ccccc1 [Compound 8, 3-{[(5-{5-[(1E)-2-phenylhex-1-en-1-yl]-1,3,4-oxadiazol-2-yl}quinolin-8-yl)methyl]amino}propanoic acid] |
| 320 | CCCCCC(Cc1nnc(-c2ccc(CNCCC(=O)O)c3ccccc23)o1)c1ccccc1 (stereo not drawn) [Compound 10, 3-[({4-[5-(2-phenylheptyl)-1,3,4-oxadiazol-2-yl]naphthalen-1-yl}methyl)amino]propanoic acid] |
| 0.26 | CCCC(Cc1nnc(-c2ccc(CNCCCP(=O)(O)O)c3ncccc23)o1)c1ccccc1 (stereo not drawn) [Compound 11, {3-[({5-[5-(2-phenylpentyl)-1,3,4-oxadiazol-2-yl]quinolin-8-yl}methyl)amino]propyl}phosphonic acid] |
| 156 | CCCC/C(=C\c1nnc(-c2ccc(CN3CC(C(=O)O)C3)c3ccccc23)o1)c1ccccc1 [Compound 14, 1-[(4-{5-[(1E)-2-phenylhex-1-en-1-yl]-1,3,4-oxadiazol-2-yl}naphthalen-1-yl)methyl]azetidine-3-carboxylic acid] |
| 942 | CCCCCC(Cc1nnc(-c2ccc(CN3CC(C(=O)O)C3)c3ccccc23)o1)c1ccccc1 (stereo not drawn) [Compound 17, 1-({4-[5-(2-phenylheptyl)-1,3,4-oxadiazol-2-yl]naphthalen-1-yl}methyl)azetidine-3-carboxylic acid] |
| 461 | CCCC(Cc1nnc(-c2ccc(CN3CC(C(=O)O)C3)c3ncccc23)o1)c1ccccc1 (stereo not drawn) [Compound 18, 1-({5-[5-(2-phenylpentyl)-1,3,4-oxadiazol-2-yl]quinolin-8-yl}methyl)azetidine-3-carboxylic acid] |
| 257 | CCCCC(Cc1nnc(-c2ccc(CNCCC(=O)O)c3ncccc23)o1)c1ccccc1 (stereo not drawn) [Compound 19, 3-[({5-[5-(2-phenylhexyl)-1,3,4-oxadiazol-2-yl]quinolin-8-yl}methyl)amino]propanoic acid] |
| 1.05 | CCCCC(Cc1nnc(-c2ccc(CNCCCP(=O)(O)O)c3ncccc23)o1)c1ccccc1 (stereo not drawn) [Compound 21, {3-[({5-[5-(2-phenylhexyl)-1,3,4-oxadiazol-2-yl]quinolin-8-yl}methyl)amino]propyl}phosphonic acid] |
| 2.87 | CCCCCC(Cc1nnc(-c2ccc(CNCCCP(=O)(O)O)c3ncccc23)o1)c1ccccc1 (stereo not drawn) [Compound 22, {3-[({5-[5-(2-phenylheptyl)-1,3,4-oxadiazol-2-yl]quinolin-8-yl}methyl)amino]propyl}phosphonic acid] |
| 163 | (E)-1-((5-(5-(2-phenylpent-1-en-1-yI)-1,3,4-oxadiazol-2-yl)quinolin-8-yl)methyl)azetidine-3-carboxylic acid [Compound 15] |

Second part, the compound before the results:

| Compound | EC50 [nM] |
| --- | --- |
| CCC/C(=C\c1nnc(-c2ccc(CNCCCP(=O)(O)O)c3ccccc23)o1)c1ccccc1 [Compound 1, (3-{[(4-{5-[(1E)-2-phenylpent-1-en-1-yl]-1,3,4-oxadiazol-2-yl}naphthalen-1-yl)methyl]amino}propyl)phosphonic acid] | 27 |
| CCCC/C(=C\c1nnc(-c2ccc(CNCCCP(=O)(O)O)c3ccccc23)o1)c1ccccc1 [Compound 3, (3-{[(4-{5-[(1E)-2-phenylhex-1-en-1-yl]-1,3,4-oxadiazol-2-yl}naphthalen-1-yl)methyl]amino}propyl) phosphonic acid] | 2.52 |
| CCC/C(=C\c1nnc(-c2ccc(CNCCCP(=O)(O)O)c3ncccc23)o1)c1ccccc1 [Compound 5, (3-{[(5-{5-[(1E)-2-phenylpent-1-en-1-yl]-1,3,4-oxadiazol-2-yl}quinolin-8-yl)methyl]amino}propyl) phosphonic acid] | 0.61 |
| CCC/C(=C\c1nnc(-c2ccc(CNCCC(=O)O)c3ncccc23)o1)c1ccccc1 [Compound 6, 3-{[(5-{5-[(1E)-2-phenylpent-1-en-1-yl]-1,3,4-oxadiazol-2-yl}quinolin-8-yl)methyl]amino}propanoic acid] | 150 |
| CCCCCC(Cc1nnc(-c2ccc(CNCCCP(=O)(O)O)c3ccccc23)o1)c1ccccc1 (stereo not drawn) [Compound 9, {3-[({4-[5-(2-phenylheptyl)-1,3,4-oxadiazol-2-yl]naphthalen-1-yl}methyl)amino]propyl}phosphonic acid] | 14 |
| CCCC(Cc1nnc(-c2ccc(CNCCC(=O)O)c3ncccc23)o1)c1ccccc1 (stereo not drawn) [Compound 12, 3-[({5-[5-(2-phenylpentyl)-1,3,4-oxadiazol-2-yl]quinolin-8-yl}methyl)amino]propanoic acid] | 340 |
| CCC/C(=C\c1nnc(-c2ccc(CN3CC(C(=O)O)C3)c3ccccc23)o1)c1ccccc1 [Compound 13, 1-[(4-{5-[(1E)-2-phenylpent-1-en-1-yl]-1,3,4-oxadiazol-2-yl}naphthalen-1-yl)methyl]azetidine-3-carboxylic acid] | 607 |
| CCCC/C(=C\c1nnc(-c2ccc(CN3CC(C(=O)O)C3)c3ncccc23)o1)c1ccccc1 [Compound 16, 1-[(5-{5-[(1E)-2-phenylhex-1-en-1-yl]-1,3,4-oxadiazol-2-yl}quinolin-8-yl)methyl]azetidine-3-carboxylic acid] | 29 |
| CCCCCC(Cc1nnc(-c2ccc(CNCCC(=O)O)c3ncccc23)o1)c1ccccc1 (stereo not drawn) [Compound 20, 3-[({5-[5-(2-phenylheptyl)-1,3,4-oxadiazol-2-yl]quinolin-8-yl}methyl)amino]propanoic acid] | 417 |
| CCCCC(Cc1nnc(-c2ccc(CN3CC(C(=O)O)C3)c3ncccc23)o1)c1ccccc1 (stereo not drawn) [Compound 23, 1-({5-[5-(2-phenylhexyl)-1,3,4-oxadiazol-2-yl]quinolin-8-yl}methyl)azetidine-3-carboxylic acid] | 376 |
| CCCCCC(Cc1nnc(-c2ccc(CN3CC(C(=O)O)C3)c3ncccc23)o1)c1ccccc1 (stereo not drawn) [Compound 24, 1-({5-[5-(2-phenylheptyl)-1,3,4-oxadiazol-2-yl]quinolin-8-yl}methyl)azetidine-3-carboxylic acid] | 1090 |
